ChEMBL document CHEMBL3351521, “Benzene-1,3-dicarboxylic acid 2,5-dimethylpyrrole derivatives as multiple inhibitors of bacterial Mur ligases (MurC-MurF)” (Bioorg Med Chem, 2014)
Converted amounts (≈) assume the structure as drawn.

Legend:
[1] = molecular target: T1, UDP-N-acetylmuramoyl-tripeptide--D-alanyl-D-alanine ligase (Escherichia coli K-12, UniProt P11880); assay: Inhibition of Escherichia coli MurF after 15 mins in presence of 0.005% Triton X-114 by Malachite green assay
T1 sequence (P11880 whole entry): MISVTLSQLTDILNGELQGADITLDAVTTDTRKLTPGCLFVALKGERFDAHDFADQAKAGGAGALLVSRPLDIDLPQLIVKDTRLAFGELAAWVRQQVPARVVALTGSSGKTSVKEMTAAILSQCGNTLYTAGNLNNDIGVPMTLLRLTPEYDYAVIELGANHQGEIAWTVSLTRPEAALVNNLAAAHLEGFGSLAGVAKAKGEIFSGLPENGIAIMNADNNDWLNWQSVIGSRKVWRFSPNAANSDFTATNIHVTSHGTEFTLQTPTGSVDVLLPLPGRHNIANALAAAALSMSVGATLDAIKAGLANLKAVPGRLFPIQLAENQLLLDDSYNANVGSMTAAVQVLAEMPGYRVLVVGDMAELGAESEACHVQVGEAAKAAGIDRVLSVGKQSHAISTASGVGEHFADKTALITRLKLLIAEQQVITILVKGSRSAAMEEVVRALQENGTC

[2] = molecular target: T2, UDP-N-acetylmuramoyl-L-alanyl-D-glutamate--2,6-diaminopimelate ligase (Escherichia coli (strain K12), UniProt P22188); assay: Inhibition of Escherichia coli MurE after 15 mins in presence of 0.005% Triton X-114 by Malachite green assay
T2 sequence (P22188 whole entry): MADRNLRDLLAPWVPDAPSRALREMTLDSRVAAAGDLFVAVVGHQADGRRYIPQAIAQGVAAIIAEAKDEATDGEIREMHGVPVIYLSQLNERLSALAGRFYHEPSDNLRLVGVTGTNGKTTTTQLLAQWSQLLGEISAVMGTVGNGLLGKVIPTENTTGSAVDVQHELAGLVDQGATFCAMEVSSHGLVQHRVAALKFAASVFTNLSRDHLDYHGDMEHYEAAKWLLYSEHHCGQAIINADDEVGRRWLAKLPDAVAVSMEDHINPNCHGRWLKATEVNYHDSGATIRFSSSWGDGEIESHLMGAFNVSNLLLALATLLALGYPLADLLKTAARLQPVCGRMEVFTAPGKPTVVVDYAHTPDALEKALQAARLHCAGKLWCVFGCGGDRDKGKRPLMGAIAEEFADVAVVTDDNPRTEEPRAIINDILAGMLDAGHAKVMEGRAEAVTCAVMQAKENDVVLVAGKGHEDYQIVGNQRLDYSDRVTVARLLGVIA

[3] = molecular target: T3, UDP-N-acetylmuramoylalanine--D-glutamate ligase (Escherichia coli K-12, UniProt P14900); assay: Inhibition of Escherichia coli MurD after 15 mins in presence of 0.005% Triton X-114 by Malachite green assay
T3 sequence (P14900 whole entry): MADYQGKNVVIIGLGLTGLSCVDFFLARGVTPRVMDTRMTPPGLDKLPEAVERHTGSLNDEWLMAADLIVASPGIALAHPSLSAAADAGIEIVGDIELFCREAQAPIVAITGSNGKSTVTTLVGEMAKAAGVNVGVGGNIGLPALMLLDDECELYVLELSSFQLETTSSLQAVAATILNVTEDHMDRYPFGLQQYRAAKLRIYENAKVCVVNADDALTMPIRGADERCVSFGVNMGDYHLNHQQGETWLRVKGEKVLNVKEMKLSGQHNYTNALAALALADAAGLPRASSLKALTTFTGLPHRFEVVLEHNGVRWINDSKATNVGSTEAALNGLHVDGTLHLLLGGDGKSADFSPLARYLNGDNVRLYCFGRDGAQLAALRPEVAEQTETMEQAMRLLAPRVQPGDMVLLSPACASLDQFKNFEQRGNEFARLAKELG

[4] = molecular target: UDP-N-acetylmuramate--L-alanine ligase (Escherichia coli K-12, UniProt P17952); assay: Inhibition of Escherichia coli MurC after 15 mins in presence of 0.005% Triton X-114 by Malachite green assay
Enterococcus faecalis = assay: Antimicrobial activity against Enterococcus faecalis ATCC 29212 after 16 to 20 hrs; assay type: functional
Haemophilus influenzae = assay: Antimicrobial activity against Haemophilus influenzae ATCC 49766 after 20 to 24 hrs; assay type: functional
Staphylococcus aureus = assay: microbe, parasite or virus in culture; conditions: ATCC 29213
Description: Antimicrobial activity against Staphylococcus aureus ATCC 29213 after 16 to 20 hrs

[5] = molecular target: T4, UDP-N-acetylmuramoyl-tripeptide--D-alanyl-D-alanine ligase (Escherichia coli K-12) (UniProt P11880); assay: Inhibition of Escherichia coli MurF assessed as residual enzyme activity at 250 uM after 15 mins in presence of 0.005% Triton X-114 by Malachite green assay
T4 sequence (whole entry): T1 sequence (P11880 whole entry)

[6] = molecular target: T5, UDP-N-acetylmuramoyl-L-alanyl-D-glutamate--2,6-diaminopimelate ligase (Escherichia coli (strain K12)) (UniProt P22188); assay: Inhibition of Escherichia coli MurE assessed as residual enzyme activity at 250 uM after 15 mins in presence of 0.005% Triton X-114 by Malachite green assay
T5 sequence (whole entry): T2 sequence (P22188 whole entry)

[7] = molecular target: T6, UDP-N-acetylmuramoylalanine--D-glutamate ligase (Escherichia coli K-12) (UniProt P14900); assay: Inhibition of Escherichia coli MurD assessed as residual enzyme activity at 250 uM after 15 mins in presence of 0.005% Triton X-114 by Malachite green assay
T6 sequence (whole entry): T3 sequence (P14900 whole entry)

[8] = molecular target: UDP-N-acetylmuramate--L-alanine ligase (Escherichia coli K-12) (UniProt P17952); assay: Inhibition of Escherichia coli MurC assessed as residual enzyme activity at 250 uM after 15 mins in presence of 0.005% Triton X-114 by Malachite green assay
[9] = molecular target: T3, UDP-N-acetylmuramoylalanine--D-glutamate ligase; assay: Competitive inhibition of Escherichia coli MurD using D-Glu substrate by steady-state enzyme kinetics assay
[10] = molecular target: T3, UDP-N-acetylmuramoylalanine--D-glutamate ligase; assay: Partial un-competitive inhibition of Escherichia coli MurD using ATP substrate by steady-state enzyme kinetics assay
[11] = molecular target: T3, UDP-N-acetylmuramoylalanine--D-glutamate ligase; assay: Partial non-competitive inhibition of Escherichia coli MurD using UMA substrate by steady-state enzyme kinetics assay

UDP-N-acetylmuramate--L-alanine ligase (Escherichia coli K-12), sequence (P17952 whole entry, looked up): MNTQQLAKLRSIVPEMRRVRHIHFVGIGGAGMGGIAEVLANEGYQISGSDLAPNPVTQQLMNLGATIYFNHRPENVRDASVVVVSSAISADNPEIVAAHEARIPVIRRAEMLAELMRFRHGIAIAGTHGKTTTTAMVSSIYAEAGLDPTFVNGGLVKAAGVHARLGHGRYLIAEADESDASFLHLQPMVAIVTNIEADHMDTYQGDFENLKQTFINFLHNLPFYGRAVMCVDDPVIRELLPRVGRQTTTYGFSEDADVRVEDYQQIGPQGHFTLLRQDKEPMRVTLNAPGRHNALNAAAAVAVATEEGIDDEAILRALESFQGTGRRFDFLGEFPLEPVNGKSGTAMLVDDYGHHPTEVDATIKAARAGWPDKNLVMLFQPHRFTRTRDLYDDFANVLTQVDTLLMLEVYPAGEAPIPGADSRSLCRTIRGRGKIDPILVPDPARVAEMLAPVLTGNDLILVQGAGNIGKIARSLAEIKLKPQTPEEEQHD
UDP-N-acetylmuramate--L-alanine ligase, sequence (P17952 whole entry): as the sequence (P17952 whole entry, looked up) above

Compound	IC50 [2]	Activity [5]	Activity [6]	Activity [7]	Activity [8]	also measured
Cc1cc(/C=C2/S/C(=N/c3ccccc3)NC2=O)c(C)n1-c1cc(C(=O)O)cc(C(=O)O)c1	494 µM	–	–	–	–	IC50 [1]: 298 µM; IC50 [3]: 206 µM; IC50 [4]: 205 µM; MIC (Enterococcus faecalis): > 256 µg/mL; MIC (Haemophilus influenzae): 256 µg/mL (≈ 555 µM); MIC (Staphylococcus aureus): > 256 µg/mL
C/N=C1/S/C(=C/c2cc(C)n(-c3cc(C(=O)O)cc(C(=O)O)c3)c2C)C(=O)N1C	–	95%	97%	89%	106%	–
Cc1cc(/C=C2/S/C(=N/c3ccc(Br)cc3)NC2=O)c(C)n1-c1cc(C(=O)O)cc(C(=O)O)c1	89 µM	–	–	–	–	IC50 [1]: 102 µM; IC50 [3]: 66 µM; IC50 [4]: 44 µM
O=C1N/C(=N\c2ccc(Br)cc2)S/C1=C/c1c[nH]c2ccccc12	–	75%	90%	102%	87%	–
Cc1ccc(/N=C2\NC(=O)/C(=C\c3cc(C)n(-c4cc(C(=O)O)cc(C(=O)O)c4)c3C)S2)cc1	245 µM	–	–	–	–	IC50 [1]: 201 µM; IC50 [3]: 170 µM; IC50 [4]: 107 µM
O=C1NC(=S)N(c2ccc(F)cc2)C(=O)/C1=C\c1ccc2c(c1)OCO2	–	81%	97%	102%	108%	–
Cc1cc(/C=C2/S/C(=N/c3cccc(Br)c3)NC2=O)c(C)n1C1CCCCC1	–	93%	91%	79%	89%	–
Cc1cc(/C=C2/C(=O)NC(=S)N(c3cccc(Cl)c3)C2=O)c(C)n1-c1cc(C(=O)O)cc(C(=O)O)c1	–	78%	–	–	80%	–
O=C1NC(=S)N(c2ccc(Br)cc2)C(=O)/C1=C\c1ccc2c(c1)OCO2	–	95%	81%	91%	120%	–
GENTAMICIN	–	–	–	–	–	MIC (Enterococcus faecalis): 8 µg/mL
Cc1cc(/C=C2/C(=O)NC(=S)N(c3ccccc3)C2=O)c(C)n1-c1cc(C(=O)O)cc(C(=O)O)c1	–	84%	–	–	75%	MIC (Enterococcus faecalis): > 256 µg/mL; MIC (Haemophilus influenzae): > 256 µg/mL; MIC (Staphylococcus aureus): > 256 µg/mL
O=C1NC(=S)N(c2ccc(Cl)cc2)C(=O)/C1=C\c1cc2ccccc2[nH]1	44 µM	20%	–	71%	77%	–
CCc1ccccc1N1C(=O)/C(=C\c2cc(C)n(-c3cc(C(=O)O)cc(C(=O)O)c3)c2C)C(=O)NC1=S	–	68%	–	–	85%	–
Cc1cc(/C=C2/S/C(=N/c3ccc(F)cc3)NC2=O)c(C)n1C	–	67%	76%	78%	82%	–
Cc1cc(/C=C2/C(=O)NC(=O)N(c3ccc(Br)cc3)C2=O)c(C)n1-c1cc(C(=O)O)cc(C(=O)O)c1	211 µM	60%	–	71%	62%	–
Cc1cc(/C=C2/C(=O)NC(=S)N(c3ccccc3F)C2=O)c(C)n1-c1cc(C(=O)O)cc(C(=O)O)c1	311 µM	–	–	71%	60%	IC50 [1]: 344 µM
Cc1cc(/C=C2/SC(=S)NC2=O)c(C)n1-c1cc(C(=O)O)cc(C(=O)O)c1	–	89%	–	–	–	IC50 [3]: 95 µM; IC50 [4]: 133 µM; MIC (Enterococcus faecalis): 128 µg/mL (≈ 318 µM); MIC (Haemophilus influenzae): 256 µg/mL (≈ 636 µM); MIC (Staphylococcus aureus): > 256 µg/mL
Cc1cc(/C=C2/S/C(=N/c3ccc(Cl)cc3)NC2=O)c(C)n1-c1cc(C(=O)O)cc(C(=O)O)c1	93 µM	–	–	–	–	IC50 [1]: 89 µM; IC50 [3]: 60 µM; IC50 [4]: 41 µM; Ki [9]: 21 µM; Ki [10]: 39 µM; Ki [11]: 29 µM
Cc1cc(/C=C2/C(=O)NC(=S)N(c3cccc(Cl)c3Cl)C2=O)c(C)n1-c1cc(C(=O)O)cc(C(=O)O)c1	–	86%	–	–	96%	–
CCc1ccc(N2C(=O)/C(=C\c3cc(C)n(C4CCCCC4)c3C)C(=O)NC2=S)cc1	–	75%	97%	100%	92%	–
COc1ccc(/N=C2\NC(=O)/C(=C\c3cc(C)n(-c4cc(C(=O)O)cc(C(=O)O)c4)c3C)S2)cc1	303 µM	–	–	–	–	IC50 [1]: 281 µM; IC50 [3]: 168 µM; IC50 [4]: 172 µM
CCc1ccc(N2C(=O)NC(=O)/C(=C/c3cc(C)n(-c4cc(C(=O)O)cc(C(=O)O)c4)c3C)C2=O)cc1	330 µM	75%	–	81%	74%	–
CO/N=C(\C(=O)N[C@@H]1C(=O)N2C(C(=O)O)=C(COC(N)=O)CS[C@H]12)c1ccco1 [CEFUROXIME]	–	–	–	–	–	MIC (Haemophilus influenzae): 0.5 µg/mL (≈ 1.18 µM)
